Results published in patent US20250213627A1, “RECOMBINANT MICROORGANISM-BASED METHODS AND COMPOSITIONS FOR TREATMENT OF DISEASE” (Baylor College of Medicine, priority 2021, published 2025).
Ends that are not written are not given here.

Tests used:
KCa1.1 = KCa1.1 (Homo sapiens, UniProt Q12791); details: cited from earlier work
rats = experiment: Side effects of KCa1.1 blockers (urine spots, tremor measurements); format: in vivo, rat; details: single injection
Description: (§1) FIGS. 12A-12E. Blocking KCa1.1 reduces the severity of an animal model of RA. FIG. 12A. Effects of vehicle (□), paxilline (▪, 20 mg/kg), and iberiotoxin (IbTX, ▪, 0.5 mg/kg) in rats with PIA. Injections were given intraperitoneally (paxilline) or subcutaneously (IbTX), every other day, starting at onset of clinical signs. N=18 rats per group. FIG. 12B. Ex vivo invasiveness of FLS isolated from healthy rats or arthritic rats, treated with vehicle or IbTX. N=5 rats per group. FIG. 12C. Representative images from the joints of arthritic rats, treated with vehicle or IbTX, and stained with Safranin O-fast green (red: cartilage & bone marrow; blue: bone). FIG. 12D. Number of urine spots after rats received a single injection of vehicle, paxilline, or IbTX and were gavaged with 1 ml drinking water. N=6 rats per group. FIG. 12E. Representative tremor measurements in rats 10 min after the injection of vehicle, paxilline, or IbTX. *p<0.05, **p<0.01, ***p<0.001.
(§2) The inventors have tested the efficacy and safety of two KCa1.1 blockers, the small molecule paxilline that blocks KCa1.1 regardless of β subunit and the peptide IbTX that blocks only some αβ combinations of KCa1.1.

rat model of RA (PIA) = experiment: Pristane-induced arthritis (PIA) model treated with KCa1.1 blockers; format: in vivo; details: paxilline 20 mg/kg i.p., IbTX 0.5 mg/kg s.c., every other day from onset
Description: as §1, §2

CIA = details: injected; cited from earlier work
rat CIA model of RA = experiment: CIA model treated with LrIbTX; format: in vivo; details: daily treatment for 3 weeks from onset
Text: CIA is induced in male and female Lewis rats as described above and the rats monitored for clinical signs of arthritis. Treatment begins at onset of clinical signs, at which time rats are randomly assigned to the different treatment groups: oral LrIbTX, oral LrIbTX[R34D], injected synthetic IbTX, and injected vehicle. Treatment continues daily for 3 weeks. Rats are scored daily for CIA severity with a score of 2 given for each lightly swollen ankle or wrist, 5 for each severely swollen ankle and wrist, and 1 for each red and swollen small joint for a total of 15 per paw. At the end of the 3 weeks of treatment and scoring, rats are euthanized for collection of blood and hind limbs. Blood is used to prepare serum to detect circulating levels of IbTX. For each rat, the left hind limb is used for micro-CT to detect bone damage followed by sectioning for histology to detect cartilage damage (safranin O/Fast Green stain) and synovium inflammation (hematoxylin and eosin stain). The right hind limb is used for the isolation of FLS to assess their proliferation and invasiveness ex vivo, using the methods described above, without further treatment.

[1] = Detection of functional IbTX in the circulation of rats by patch-clamp; format: in vivo, rat; details: enteric-coated capsule
Description: CIA is induced in both male and female Lewis rats by their immunization twice at a week interval with porcine collagen II in emulsion with incomplete Freund's adjuvant. Rats are monitored for clinical signs of arthritis and receive an oral bolus of [1×10^7-1×10^9 CFU] LrIbTX or LrIbTX[R34D], or an enteric-coated capsule containing either 0.1 mg/kg body weight synthetic IbTX, IbTX[R34D] or glycerin on the day after the onset of clinical signs. Age- and sex-matched healthy rats are used for comparison. Blood is collected via the saphenous vein or via terminal cardiac puncture 1 hr, 6 hrs, and 24 hrs after gavage. Whole-cell patch-clamp is used to detect and quantify levels of functional IbTX in the serum of the rats.

RA-FLS = RA-FLS proliferation and invasion assays; format: cell-based, human; details: supernatants or synthetic peptide
Description: For proliferation assays, RA-FLS are plated into 96 well plates and incubated for 48 hrs in the presence of media supplemented with either LrIbTX or LrIbTX[R34D] supernatants, known concentrations of synthetic IbTX, or the vehicle for IbTX. [3H] thymidine is added during the last 16-18 hrs of culture and the amount of [3H] thymidine incorporated into the DNA collected with a scintillation counter as a measure of cell division.
For invasion assays, RA-FLS are seeded in the upper compartment of a Matrigel-coated transwell and induced to cross into the lower compartment by the addition of FBS. The upper compartment is supplemented with either LrIbTX or LrIbTX[R34D] supernatants, synthetic IbTX, or the vehicle. The number of cells crossing into the lower compartment are counted as a measure of invasiveness.

[2] = tested on: rat models of RA and multiple sclerosis; details: in vivo; cited from earlier work
active plaque psoriasis = details: doses as low at 30 μg/patient 3 times a week subcutaneously; cited from earlier work
[3] = tested on: Kv1.3 versus Kv1.1 and other ion channels; details: cited from earlier work
Kv1.3 = Kv1.3 (Mus musculus, UniProt P16390); details: literature values; cited from earlier work
Kv1.3, sequence (P16390 whole entry): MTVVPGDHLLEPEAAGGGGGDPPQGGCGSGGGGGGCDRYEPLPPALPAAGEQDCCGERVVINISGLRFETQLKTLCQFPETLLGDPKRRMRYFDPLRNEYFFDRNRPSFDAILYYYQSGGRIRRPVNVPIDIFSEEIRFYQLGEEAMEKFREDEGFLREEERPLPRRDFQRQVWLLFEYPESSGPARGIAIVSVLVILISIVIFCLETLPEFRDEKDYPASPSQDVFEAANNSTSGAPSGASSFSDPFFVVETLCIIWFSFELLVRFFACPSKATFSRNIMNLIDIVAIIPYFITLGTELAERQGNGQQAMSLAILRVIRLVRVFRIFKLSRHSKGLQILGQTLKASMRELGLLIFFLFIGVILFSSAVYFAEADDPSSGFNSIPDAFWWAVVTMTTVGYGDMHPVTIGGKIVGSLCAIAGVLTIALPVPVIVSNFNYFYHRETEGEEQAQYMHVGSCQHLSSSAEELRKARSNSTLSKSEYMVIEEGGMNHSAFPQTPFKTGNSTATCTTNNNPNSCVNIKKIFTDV

[4] = tested on: CCR7− TEM cells and CCR7+ naïve/TCM cells; experiment: [3H]-thymidine incorporation proliferation of T-cell subsets in presence of ShK-186; format: cell-based, human
Description: FIGS. 2A-2C. […] FIGS. 2A-2B. Naïve/TCM (▪) and TEM (▪) cells were separated based on CCR7 expression and activated in the presence of ShK-186, either immediately after isolation (FIG. 2A) or after an overnight pre-activation to induce the upregulation of either KV1.3 or KCa3.1 (FIG. 2B). FIG. 2C. TEM cells were activated with 10 (◯), 30 (▪), or 90 (▴) μg/ml antigen in the presence of ShK-186. In all aspects, T-cell proliferation was assessed via [3H] thymidine incorporation into the DNA of the dividing cells. Each data point represents mean±SD of triplicates.
The activation of CCR7^− TEM cells induces the upregulation of the Kv1.3 K^+ channel (FIG. 1)^8,9. In contrast, CCR7^+ naïve and central memory T (TCM) cells upregulate a different K^+ channel (KCa3.1) upon activation^8,9,35. The inventors therefore designed selective Kv1.3 blockers and assessed the sensitivity of the different T-cell subsets to Kv1.3 block. […] Without wishing to be bound by theory, this “escape” by naïve/TCM effectors may be due to up-regulation of the calcium-activated KCa3.1 channel that regulates membrane potential and Ca^2+ signaling in naïve/TCM effectors in place of Kv1.38. The significance of this finding is that in some aspects Kv1.3 blockers have an advantage over current immunotherapies because naïve and long-lived TCM cells (the main memory pool) would escape inhibition while TEM cells would be targeted.

[5] = tested on: viral or bacterial infections in rats; details: rat, in vivo; cited from earlier work
[6] = tested on: rodents, non-human primates, healthy humans, and patients; details: systemic administration; Phase 1A and 1B; cited from earlier work
[7] = Immunohistochemistry detection of HA tag in spleen after injection; format: in vivo, rat; details: subcutaneous injection, spleens collected 3 hours later
Description: FIGS. 10A-10B. LrS235-HA secretes functionally active HA-tagged ShK-235. FIG. 10A. Representative whole-cell Kv1.3 currents measured by patch-clamp in cells stably expressing Kv1.3 before (control, top trace) and after application of ShK-235-HA (bottom trace). FIG. 10B. Healthy Lewis rats received a subcutaneous injection of either ShK-235-HA (left) or of untagged ShK-235 (right). Their spleens were collected 3 hours later and stained to detect the HA tag in brown (arrows). Scale bar: 50 μm.
Two complementary approaches to directly detect ShK-235 in joints and tissues and assess its action on T lymphocyte proliferation are used. L. reuteri LJ01 has been engineered to express HA-tagged ShK-235 (LrS235-HA), because the low immunogenicity of the peptide has made it impossible to raise antibodies against ShK-235. […] ShK-235-HA was injected to healthy rats and their spleens collected. […] HA-tagged ShK-235 is used to detect and localize ShK-235 in the joints, intestines, and secondary lymphoid organs of rats with CIA.

[8] = cells activated overnight, rested and re-stimulated

KCa1.1, sequence (Q12791 whole entry, species assumed): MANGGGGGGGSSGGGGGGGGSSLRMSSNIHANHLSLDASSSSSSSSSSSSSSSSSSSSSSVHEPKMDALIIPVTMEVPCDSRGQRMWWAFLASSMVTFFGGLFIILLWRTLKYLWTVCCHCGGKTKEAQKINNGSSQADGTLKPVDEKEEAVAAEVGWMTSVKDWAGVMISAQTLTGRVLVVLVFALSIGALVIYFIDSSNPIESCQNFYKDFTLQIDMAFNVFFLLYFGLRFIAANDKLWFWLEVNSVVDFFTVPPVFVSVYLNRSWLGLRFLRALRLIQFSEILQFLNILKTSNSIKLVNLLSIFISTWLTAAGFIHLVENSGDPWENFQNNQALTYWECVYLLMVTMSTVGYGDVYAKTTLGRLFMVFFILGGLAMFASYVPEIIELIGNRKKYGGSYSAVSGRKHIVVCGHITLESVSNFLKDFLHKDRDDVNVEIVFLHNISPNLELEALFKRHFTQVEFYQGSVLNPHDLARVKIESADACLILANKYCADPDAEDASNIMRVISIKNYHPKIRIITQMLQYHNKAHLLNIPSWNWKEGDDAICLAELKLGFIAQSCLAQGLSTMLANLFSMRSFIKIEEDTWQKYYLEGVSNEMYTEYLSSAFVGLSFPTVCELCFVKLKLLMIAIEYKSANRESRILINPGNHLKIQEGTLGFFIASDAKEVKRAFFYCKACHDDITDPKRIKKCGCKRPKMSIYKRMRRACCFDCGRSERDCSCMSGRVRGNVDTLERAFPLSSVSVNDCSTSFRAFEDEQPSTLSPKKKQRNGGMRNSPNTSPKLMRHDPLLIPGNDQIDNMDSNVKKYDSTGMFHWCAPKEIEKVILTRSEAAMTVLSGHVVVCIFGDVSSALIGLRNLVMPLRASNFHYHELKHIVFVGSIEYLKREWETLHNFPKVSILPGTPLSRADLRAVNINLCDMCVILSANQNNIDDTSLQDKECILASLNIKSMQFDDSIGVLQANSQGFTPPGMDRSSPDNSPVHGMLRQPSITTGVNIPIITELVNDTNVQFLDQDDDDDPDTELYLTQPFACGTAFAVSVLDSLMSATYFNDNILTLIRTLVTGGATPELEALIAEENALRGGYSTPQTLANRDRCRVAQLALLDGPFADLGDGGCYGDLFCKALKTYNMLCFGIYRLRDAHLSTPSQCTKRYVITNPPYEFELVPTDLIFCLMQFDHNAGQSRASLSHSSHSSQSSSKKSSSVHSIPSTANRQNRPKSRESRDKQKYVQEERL

IbTX[R34D] (QFTDVDCSVSKECWSVCKDLFGVDRGKCMGKKCDCYQ; ends and bridges not checked; cysteine pairing not given here; UniProt P24663 1-37, looked up, variant R34D)
Block of KCa1.1 channels (KCa1.1; mutant IbTX): does not block KCa1.1 channels

CC(C)(O)[C@H]1O[C@H]2CC[C@@]3(C)[C@@](O)(CC[C@H]4Cc5c([nH]c6ccccc56)[C@@]43C)C2=CC1=O [paxilline]
Side effects (incontinence, tremors) (rats): induces incontinence and tremors

iberiotoxin (QFTDVDCSVSKECWSVCKDLFGVDRGKCMGKKCRCYQ; not fully specified (residue 1, bridges); cysteine pairing not given here; UniProt P24663 1-37, looked up) [IbTX]
Reduction of disease severity (rat model of RA (PIA)): effective in reducing disease severity | Efficacy in CIA (CIA): showed efficacy | IC50 (KCa1.1): 2 nM | Side effects (incontinence, tremors) (rats): No such side effects | CIA disease severity (rat CIA model of RA): milder disease | Detection of IbTX in the circulation [1]: transiently detected | Inhibition of RA-FLS proliferation and invasiveness (RA-FLS): inhibit

ShK derivative, pTyr-AEEA-RSCIDTIPKSRCTAFQCKHSMKYRLSFCRKTCGTC, amidated C-terminus (SEQ ID NO:11) [ShK-186]
Efficacy [2]: demonstrated efficacy | Efficacy (active plaque psoriasis): showed efficacy | Tolerability (active plaque psoriasis): well tolerated | Selectivity for Kv1.3 over all other ion channels [3]: ≥ 700 fold | Selectivity for Kv1.3 versus the closely-related Kv1.1 channel [3]: 100 fold | Selectivity for Kv1.3 over other channels ([3]; comparator value): 100 fold | IC50 (Kv1.3): 0.07 nM | Sensitivity of TEM cell proliferation to the Kv1.3 blocker [4, 8]: exquisitely sensitive | Sensitivity of naïve/TCM cell proliferation to the Kv1.3 blocker [4, 8]: resistant | Fold more effective in suppressing [3H]-thymidine incorporation by TEM cells compared with naïve/TCM cells ([4]; cells from patients with type 1 diabetes or RA, activated immediately after isolation): 10 fold | Effect on clearance of infections [5]: did not prevent the clearance | Safety profile [6]: excellent safety profile

sea anemone Stichodactyla helianthus peptide RSCIDTIPKSRCTAFQCKHSMKYRLSFCRKTCGTC (SEQ ID NO:10) [ShK]
IC50 (Kv1.3): 0.01 nM

ShK-235-HA: HA-tagged ShK-235 (RSCIDTIPKSRCTAFKCKHSIKYRLSFCRKTCGTCA; ends and bridges not checked; also: HA tag (position not given here))
Detection in spleen sections [7]: detect HA-ShK-235 in spleen sections
